A short description of data set [1]: stability in human liver microsomes. The class given is in vitro ADME. The conditions noted are these: read-out: Microsome t1/2, Human. An excerpt: Table 1 Stability of compounds 6, 7 and 10 in human and mouse plasma and liver microsomes. | column: Microsome (t1/2 = Min) / Human
Data set [2] deals with MCF-7 cells. Put plainly: MTS viability, MCF-7 cells. Type of data set: cell-based. The conditions noted are these: Homo sapiens, MCF7, 72 h, n=3. The protocol:
(§1) Figure S1A. Effects of compounds 3- 7, 10, 12, 13 and 15 on the viability of LNCaP,
(§2) MDA-MD-231, MCF-7 and Vero cells. The cells are incubated with the drugs for 72 h
(§3) and viability evaluated with MTS. NI = IC50 greater than 100 μM. n=3
(§4) Compound LNCaP (µM) MDA-MB-231 (µM) MCF-7 (µM) Vero (µM)

The test system of data set [3] is Vero cells. The data set is described as follows: MTS viability, Vero cells. The conditions noted are these: Chlorocebus sabaeus, 72 h, n=3. The class given is cell-based. As for the experimental part: as §1, §2, §3, §4
Data set [4] in a line: stability in mouse plasma. Type of data set: in vitro ADME. The conditions noted are these: read-out: Plasma t1/2, Mouse. An excerpt:
Table 1 Stability of compounds 6, 7 and 10 in human and mouse plasma and liver microsomes. | column: Plasma (t1/2 = Min) / Mouse

Data set [5] relates to PC3 cells. Put plainly: transwell migration assay, PC3 cells. Type of data set: cell-based, human. The conditions noted are these: for PC3 cell migration in combination with SAHA or docetaxel: Gαi2 inhibitor at 20 μM, in combination with either SAHA or docetaxel; for effect on PC3 cell migration (migration index): compound alone, concentration range 0.1 to 100 μM, 5 h, compared with 14. The protocol: (§5) In vitro transwell migration assays were conducted as described previously. Briefly, the outside of the transwell inserts (BD Biosciences, San Jose, CA, USA) were coated with 50 µL of rat tail collagen (50 μg/mL; BD Biosciences, San Jose, CA, USA) overnight at 4 °C. The next day, 50 μL of the aforementioned rat tail collagen was added for 1 h at room temperature into the transwell inserts to coat the inside of the membranes. DU145, PC3 and LNCaP cells were trypsinized and suspended at the appropriate density (3 × 10^5 cells/insert for DU145 and PC3, and 5 × 10^5 cells/insert for LNCaP) in MEM or RPMI containing 0.2% BSA (Sigma-Aldrich, St. Louis, MO, USA). Chemoattractant solution, used as the positive control, was made by diluting the epidermal growth factor (EGF) (10 ng/mL) into MEM (PC3 and DU145) or RPMI (LNCaP) supplemented with 0.2% BSA. Media containing 0.2% BSA served as a control. Control and EGF solutions (400 μL) were added into the wells of a 24-well plate. Aliquots of 100 μL of cell suspensions, treated with or without the different compounds at several concentrations, were loaded into the transwell inserts, and the plates were incubated at 37 °C for 5 h (DU145 and PC3) or 24 h (LNCaP). The cells inside the transwell inserts were removed by cotton swabs, and the cleaned inserts were fixed with 350 μL of 4% paraformaldehyde (pH 7.5) for 20 min at room temperature. Cells that had migrated to the outside of the transwell insert membrane were stained with 3 ng/mL of DAPI solution (Thermo Fisher Scientific, Eugene, OR, USA), and images of five non-overlapping fields were captured using an Axiovert 200M, Carl Zeiss (Thornwood, NY, USA) microscope. The number of stained nuclei were determined with automatic counting using image analysis software (ZEN 2012 (blue edition, Version 1.1.1.0); Carl Zeiss Microscopy GmbH, Oberkochen, Germany). The results were expressed as a migration index defined as the average number of cells per field for test substance/the average number of cells per field for the medium control.

The subject of data set [6] is MDA-MB-231 cells. The data set is described as follows: MTS viability, MDA-MB-231 cells. The class given is cell-based. The conditions noted are these: Homo sapiens, 72 h, n=3. As for the experimental part: as §1, §2, §3, §4
A short description of data set [7]: stability in mouse liver microsomes. Type of data set: in vitro ADME. The conditions noted are these: read-out: Microsome t1/2, Mouse. An excerpt: Table 1 Stability of compounds 6, 7 and 10 in human and mouse plasma and liver microsomes. | column: Microsome (t1/2 = Min) / Mouse
The nature of data set [8]: stability in human plasma. Type of data set: in vitro ADME. The conditions noted are these: read-out: Plasma t1/2, Human. An excerpt:
Table 1 Stability of compounds 6, 7 and 10 in human and mouse plasma and liver microsomes. | column: Plasma (t1/2 = Min) / Human

Data set [9] concerns LNCaP cells. The data set is described as follows: MTS viability, LNCaP cells. The conditions noted are these: Homo sapiens, 72 h, n=3. The class given is cell-based. As for the experimental part:
as §1, §2, §3, §4

The test system of data set [10] is LNCaP cells. The data set is described as follows: transwell migration assay, LNCaP cells. Type of data set: cell-based, human. The conditions noted are these: compound 14 at 25 μM, simultaneous treatment with enzalutamide, bicalutamide, SAHA or SBI-I-19. The protocol:
as §5

Data set [11] deals with DU145 cells. Also noted: method as in PMID 32575572. The conditions noted are these: cited from earlier work.
For data set [12], the system named is PC3 cells. The arrangement: method as in PMID 32575572. The conditions noted are these: cited from earlier work.
The subject of data set [13] is Gαi2 protein. Put plainly: Western blot of Gαi2 protein levels in PC3 cells. The class given is cell-based, human. The conditions noted are these: 24 h; docetaxel 1 nM. As for the experimental part: Docetaxel, a taxoid anti-cancer agent, was purchased from Millipore-Sigma and dissolved in DMSO at a starting concentration of 100 μM. SAHA, a commercially available FDA-approved HDACi, was purchased from Sigma-Aldrich (St. Louis, MO, USA) and dissolved in DMSO at a starting concentration of 100 mM. SBI-I-19, an HDAC inhibitor conjugated with anti-androgen, was dissolved in DMSO at a starting concentration of 50 mM. The anti-androgen drugs enzalutamide and bicalutamide were purchased from Selleckchem (Houston, TX, USA) and Sigma-Aldrich, respectively. Anti-androgens were prepared at a stock concentration of 100 mM (enzalutamide) and 10 mM (bicalutamide) in DMSO. The Gαi2 inhibitor (compound 14) was diluted in DMSO at a stock concentration of 100 mM, as previously described. All drugs used in the study were then diluted in the culture media to the final concentrations used in various assays. To determine the effects of specific treatments on the levels of Gαi2 protein, LNCaP and PC3 cells (10^6 cells) were cultured overnight in 10 cm^2 culture dishes. The cells were then treated with anti-androgens and other agents for 24 h and the total cell lysates were collected for Western blot analyses.
Western blot analyses were performed as described previously. […] The density of specific protein bands was determined using ImageJ 1.53 K image analyses software.

The text below walks through data of publication PMC10813862, “Gαi2 Protein Inhibition Blocks Chemotherapy- and Anti-Androgen-Induced Prostate Cancer Cell Migration” (Cancers, 2024).

For the molecule `CC(Nc1ccc(O)cc1)c1cc2ccccc2n1C` (stereo not drawn) [Compound 6], the half-life in data set [1] was 118 min; in data set [4], 27 min; in data set [7], 47 min; in data set [8], greater than 120 min. The IC50 was found to be 75.7 ± 5.3 µM in data set [2], 32.4 ± 1.6 µM in data set [3], 27.3 ± 4.8 µM in [6] and 86.8 ± 10.8 µM in [9]. Moreover, in data set [5], the “PC3 cell migration in combination with SAHA or docetaxel” value (from here on “PC3 cell migration in combination”) is recorded as “decreased significantly PC3 cell migration”. Moreover, the “effect on PC3 cell migration (migration index)” value (“effect … (migration index)” below) in data set [5] is on record as “more effective relative to 14”.
On to `CSc1ccc(NC(C)c2cc3ccccc3n2C)cc1` (stereo not drawn) [Compound 7], for which the half-life in data set [1] is 45 min; in data set [4], greater than 120 min; in data set [7], less than 10 min; in [8], greater than 120 min. In addition, the IC50 in data set [2] is greater than 100 µM; in data set [3], greater than 100 µM; in data set [6], greater than 100 µM; in data set [9], 43.4 ± 3.9 µM. For the same molecule, the “PC3 cell migration in combination” value in data set [5] is given as “decreased significantly PC3 cell migration”. The “effect … (migration index)” value in data set [5] is “more effective relative to 14”.
Consider `CSc1ccc(OC(C)c2cc3ccccc3n2C)cc1` (stereo not drawn) [Compound 10], for which the half-life in data set [1] was 35 min; in data set [4] it was greater than 120 min; in data set [7] it was less than 10 min; in [8], greater than 120 min. For the same molecule, the concentration for half-maximal inhibition (IC50) in data set [2], in [3], in data set [6] and in [9] was greater than 100 µM each time. Besides, in [5], the “PC3 cell migration in combination” value is “decreased significantly PC3 cell migration”. The “effect … (migration index)” value in data set [5] is on record as “less potent compared to 7”.
With `C/C(=N\c1ccc(O)cc1)c1cc2ccccc2n1C` [Compound 14], the “effect on HDACi- and anti-androgen-induced LNCaP cell migration” value in data set [10] is on record as “blocked”. Further, the “effect on docetaxel-induced PC3 cell migration” value in data set [5] (compound 14 at 25 μM, simultaneous treatment with docetaxel) is on record as “blocked the stimulatory effects of docetaxel”. In addition, the “EGF-induced migration of DU145 cells” value in data set [11] is “attenuated the EGF-induced migration”. In addition, in data set [12], the “EGF-induced migration of PC3 cells” value is reported as “attenuated the EGF-induced migration”.
For `CC(=O)O[C@@]12CO[C@@H]1C[C@H](O)[C@@]1(C)C(=O)[C@H](O)C3=C(C)[C@@H](OC(=O)[C@H](O)[C@@H](NC(=O)OC(C)(C)C)c4ccccc4)C[C@@](O)([C@@H](OC(=O)c4ccccc4)[C@H]21)C3(C)C` [docetaxel, reference compound], the “effect of chemotherapeutic drugs on PC3 cell migration” value in [5] (drug alone, AR-negative cells) is on record as “induced an increase in cell migration”. Besides, the “levels of Gαi2 protein in PC3 cells” value in [13] is listed as “had no effect on the levels of Gαi2 protein”.
